Data taken from patent US10287291B2, “Seco-cyclopropapyrroloindole compounds, antibody-drug conjugates thereof, and methods of making and use” (priority 2016, dated 2019).
Read-outs that look alike come from different tables or passages of the source.

Assays:
[1] = system: OVCAR3 (human ovarian cancer cell line); experiment: 72 hr ATP luminescence proliferation inhibition, OVCAR3; type: cell-based
Experimental: (§1) Proliferation inhibition was measured using a 72 hr ATP luminescence assay (Cheng et al., U.S. Pat. No. 8,394,922 B2 (2013)).
(§2) Proliferation inhibition was measured against: (a) H226 (human mesothelioma (lung) cancer cell line); (b) N87 (human gastric (stomach) cancer cell line); (c) OVCAR3 (human ovarian cancer cell line); (d) HCT116 (human colon cancer cell line); and (e) HCT116/VM46 (multidrug and paclitaxel resistant subline of HCT116).

[2] = system: N87 (human gastric (stomach) cancer cell line); experiment: 72 hr ATP luminescence proliferation inhibition, N87; type: cell-based; conditions: read-out: Proliferation Inhibition of Cancer Cells EC50, N87
Experimental: as §1, §2

[3] = system: H226 (human mesothelioma (lung) cancer cell line); experiment: 72 hr ATP luminescence proliferation inhibition, H226; type: cell-based
Experimental: as §1, §2

[4] = system: HCT116/VM46 (multidrug and paclitaxel resistant subline of HCT116); experiment: 72 hr ATP luminescence proliferation inhibition, HCT116/VM46; type: cell-based, human; conditions: read-out: Proliferation Inhibition of Cancer Cells EC50, HCT116/VM46
Experimental: as §1, §2

[5] = system: HCT116 (human colon cancer cell line); experiment: 72 hr ATP luminescence proliferation inhibition, HCT116; type: cell-based
Experimental: as §1, §2

[6] = Homo sapiens, OVCAR-3, read-out: Proliferation Inhibition of Cancer Cells EC50, OVCAR3
[7] = Homo sapiens, NCI-H226, read-out: Proliferation Inhibition of Cancer Cells EC50, H226
[8] = Homo sapiens, HCT-116/VM46, HCT116/VM46 cell line
[9] = Homo sapiens, HCT-116, read-out: Proliferation Inhibition of Cancer Cells EC50, HCT116
[10] = read-out: Proliferation Inhibition of Cancer Cells EC50, H226
[11] = read-out: Proliferation Inhibition of Cancer Cells EC50, HCT116
[12] = read-out: Proliferation Inhibition of Cancer Cells EC50, OVCAR3

Question: Which results are given for `COCCCOc1ccc2[nH]c(C(=O)N3C[C@@H](CCl)c4c3cc(O)c3[nH]c(C(=O)N5CCOCC5)cc43)cc2c1` [Ia-09]?
Answer: EC50 [1, 6]: 0.025 nM; EC50 ([2]; Homo sapiens): 0.016 nM; EC50 [3, 7]: 0.055 nM

Question: What does the source list for `CC(C)COc1ccc2[nH]c(C(=O)N3C[C@@H](CCl)c4c3cc(O)c3[nH]c(C(=O)N5CCOCC5)cc43)cc2c1` [Ia-05]?
Answer: EC50 [4, 8]: 0.17 nM; EC50 [5, 9]: 0.17 nM; EC50 [1, 6]: 0.076 nM; EC50 ([2]; Homo sapiens): 0.21 nM; EC50 [3, 7]: 0.18 nM

Question: With `CN(C)CCOc1ccc2[nH]c(C(=O)N3C[C@@H](CCl)c4c3cc(O)c3[nH]c(C(=O)Nc5ccc(O)cc5)cc43)cc2c1` [Ia-27] as the compound, how does the EC50 [2] read?
Answer: Its EC50 is 3.5 nM.

Question: And the EC50 [3, 10]?
Answer: The EC50 was 1.4 nM.

Question: For `O=C(c1cc2c3c(cc(O)c2[nH]1)N(C(=O)c1cc2cc(OC4CCOCC4)ccc2[nH]1)C[C@H]3CCl)N1CCOCC1` [Ia-14], which EC50 [4, 8] is on record?
Answer: The EC50 was 0.77 nM.

Question: And the EC50 [5, 9]?
Answer: The EC50 was 0.26 nM.

Question: And the EC50 [1, 6]?
Answer: Its EC50 is 0.1 nM.

Question: And the EC50 ([2]; Homo sapiens)?
Answer: The EC50 was 0.36 nM.

Question: And the EC50 [3, 7]?
Answer: Its EC50 is 0.43 nM.

Question: With `COCCOc1ccc2[nH]c(C(=O)N3C[C@@H](CCl)c4c3cc(O)c3[nH]c(C(=O)N5CCOCC5)cc43)cc2c1` [Ia-01] as the compound, how does the EC50 ([2]; Homo sapiens) read?
Answer: The EC50 was 0.007 nM.

Question: And the EC50 [3, 7]?
Answer: Its EC50 is 0.014 nM.

Question: How did the EC50 ([2]; Homo sapiens) turn out when `Nc1ccc(C(=O)Nc2ccc3[nH]c(C(=O)N4C[C@@H](CCl)c5c4cc(O)c4[nH]c(C(=O)N6CCOCC6)cc54)cc3c2)cc1` [Id-02] was run?
Answer: Its EC50 is 1.4 nM.

Question: What about the EC50 [3, 7] of the same compound?
Answer: The EC50 was 1.2 nM.

Question: For `Nc1ccc2[nH]c(C(=O)Nc3ccc4[nH]c(C(=O)N5C[C@@H](CCl)c6c5cc(O)c5[nH]c(C(=O)N7CCOCC7)cc65)cc4c3)cc2c1` [Ic-01], which EC50 [4, 8] is on record?
Answer: The EC50 was 0.75 nM.

Question: What about the EC50 [5, 9] of the same compound?
Answer: Its EC50 is 0.43 nM.

Question: What about the EC50 [1, 6] of the same compound?
Answer: Its EC50 is 0.89 nM.

Question: And the EC50 ([2]; Homo sapiens)?
Answer: The EC50 was 1.5 nM.

Question: And the EC50 [3, 7]?
Answer: Its EC50 is 0.91 nM.

Question: With `CCOc1ccc2[nH]c(C(=O)N3C[C@@H](CCl)c4c3cc(O)c3[nH]c(C(=O)N5CCOCC5)cc43)cc2c1` [Ia-02] as the compound, how does the EC50 [4, 8] read?
Answer: Its EC50 is 0.045 nM.

Question: And the EC50 [5, 9]?
Answer: The EC50 was 0.045 nM.

Question: And the EC50 [1, 6]?
Answer: The EC50 was 0.048 nM.

Question: And the EC50 ([2]; Homo sapiens)?
Answer: Its EC50 is 0.097 nM.

Question: And the EC50 [3, 7]?
Answer: The EC50 was 0.042 nM.

Question: How did the EC50 ([4]; HCT116/VM46 cell line) turn out when `CC(C)CCOc1ccc2[nH]c(C(=O)N3C[C@@H](CCl)c4c3cc(O)c3[nH]c(C(=O)N5CCOCC5)cc43)cc2c1` [Ia-31] was run?
Answer: The EC50 was 0.86 nM.

Question: What about the EC50 [5, 11] of the same compound?
Answer: Its EC50 is 0.62 nM.

Question: And the EC50 [1, 12]?
Answer: The EC50 was 0.53 nM.

Question: And the EC50 [2]?
Answer: Its EC50 is 0.43 nM.

Question: What about the EC50 [3, 10] of the same compound?
Answer: The EC50 was 0.24 nM.

Question: How did the EC50 [1, 6] turn out when `O=C(c1cc2c3c(cc(O)c2[nH]1)N(C(=O)c1cc2cc(OCCO)ccc2[nH]1)C[C@H]3CCl)N1CCOCC1` [Ia-08] was run?
Answer: Its EC50 is 2.1 nM.

Question: And the EC50 ([2]; Homo sapiens)?
Answer: The EC50 was 1.3 nM.

Question: And the EC50 [3, 7]?
Answer: The EC50 was 3.4 nM.

Question: How did the EC50 [4, 8] turn out when `COc1cc2cc(C(=O)N3C[C@@H](CCl)c4c3cc(O)c3[nH]c(C(=O)N5CCOCC5)cc43)[nH]c2c(OC)c1OC` [Ia-30] was run?
Answer: Its EC50 is 0.097 nM.

Question: What about the EC50 [5, 9] of the same compound?
Answer: Its EC50 is 0.033 nM.

Question: And the EC50 [1, 6]?
Answer: Its EC50 is 0.032 nM.

Question: And the EC50 ([2]; Homo sapiens)?
Answer: The EC50 was 0.045 nM.

Question: And the EC50 [3, 7]?
Answer: Its EC50 is 0.018 nM.

Question: `NCCOc1ccc2[nH]c(C(=O)N3C[C@@H](CCl)c4c3cc(O)c3[nH]c(C(=O)N5CCOCC5)cc43)cc2c1` [Ia-18] was tested. Which EC50 [4, 8] did it give?
Answer: The EC50 was 19 nM.

Question: And the EC50 [5, 9]?
Answer: Its EC50 is 25 nM.

Question: What about the EC50 [1, 6] of the same compound?
Answer: The EC50 was 12 nM.

Question: What about the EC50 ([2]; Homo sapiens) of the same compound?
Answer: Its EC50 is 48 nM.

Question: What about the EC50 [3, 7] of the same compound?
Answer: The EC50 was 32 nM.

Question: With `CNCCOc1ccc2[nH]c(C(=O)N3C[C@@H](CCl)c4c3cc(O)c3[nH]c(C(=O)N5CCOCC5)cc43)cc2c1` [Ia-17] as the compound, how does the EC50 ([4]; HCT116/VM46 cell line) read?
Answer: Its EC50 is 25 nM.

Question: And the EC50 [5, 11]?
Answer: The EC50 was 19 nM.

Question: What about the EC50 [1, 12] of the same compound?
Answer: Its EC50 is 18 nM.

Question: And the EC50 [2]?
Answer: The EC50 was 36 nM.

Question: What about the EC50 [3, 10] of the same compound?
Answer: Its EC50 is 1.6 nM.

Question: For `CCCOc1ccc2[nH]c(C(=O)N3C[C@@H](CCl)c4c3cc(O)c3[nH]c(C(=O)N5CCCOCC5)cc43)cc2c1` [Ia-28], which EC50 ([4]; HCT116/VM46 cell line) is on record?
Answer: Its EC50 is 0.09 nM.

Question: What about the EC50 [5, 11] of the same compound?
Answer: Its EC50 is 0.079 nM.

Question: What about the EC50 [1, 12] of the same compound?
Answer: The EC50 was 0.058 nM.

Question: What about the EC50 [2] of the same compound?
Answer: The EC50 was 0.066 nM.

Question: What about the EC50 [3, 10] of the same compound?
Answer: The EC50 was 0.3 nM.

Question: `O=C(c1cc2c3c(cc(O)c2[nH]1)N(C(=O)c1cc2cc(OC4CCCC4)ccc2[nH]1)C[C@H]3CCl)N1CCOCC1` [Ia-15] was tested. Which EC50 [4, 8] did it give?
Answer: Its EC50 is 0.26 nM.

Question: And the EC50 [5, 9]?
Answer: Its EC50 is 0.22 nM.

Question: What about the EC50 [1, 6] of the same compound?
Answer: Its EC50 is 0.21 nM.

Question: What about the EC50 ([2]; Homo sapiens) of the same compound?
Answer: Its EC50 is 0.32 nM.

Question: And the EC50 [3, 7]?
Answer: The EC50 was 0.28 nM.

Question: For `O=C(Nc1ccc2nc(C(=O)N3C[C@@H](CCl)c4c3cc(O)c3[nH]c(C(=O)N5CCOCC5)cc43)cn2c1)c1ccc(O)cc1` [Ib-01], which EC50 ([4]; HCT116/VM46 cell line) is on record?
Answer: The EC50 was 3.5 nM.

Question: And the EC50 [5, 11]?
Answer: Its EC50 is 3.2 nM.

Question: What about the EC50 [1, 12] of the same compound?
Answer: Its EC50 is 2.8 nM.

Question: And the EC50 [2]?
Answer: Its EC50 is 3.6 nM.

Question: And the EC50 [3, 10]?
Answer: The EC50 was 2.39 nM.

Question: With `CNCCN(C)C(=O)c1cc2c3c(cc(O)c2[nH]1)N(C(=O)c1cc2cc(OC)ccc2[nH]1)C[C@H]3CCl` [Ia-21] as the compound, how does the EC50 ([4]; HCT116/VM46 cell line) read?
Answer: The EC50 was 0.5 nM.

Question: And the EC50 [5, 11]?
Answer: The EC50 was 0.85 nM.

Question: And the EC50 [1, 12]?
Answer: Its EC50 is 1.2 nM.

Question: And the EC50 [2]?
Answer: Its EC50 is 2.2 nM.

Question: And the EC50 [3, 10]?
Answer: Its EC50 is 0.99 nM.

Question: How did the EC50 ([4]; HCT116/VM46 cell line) turn out when `CN1CCN(C(=O)c2cc3c4c(cc(O)c3[nH]2)N(C(=O)c2cc3cc(N)ccc3[nH]2)C[C@H]4CCl)CC1` [Ia-26] was run?
Answer: The EC50 was 12 nM.

Question: And the EC50 [5, 11]?
Answer: The EC50 was 4.1 nM.

Question: And the EC50 [1, 12]?
Answer: The EC50 was 2.7 nM.

Question: What about the EC50 [3, 10] of the same compound?
Answer: Its EC50 is 9.5 nM.
